Converted amounts (≈) assume the structure as drawn. Read-outs that look alike come from different tables or passages of the source.
What was measured:
[1] = Earlier SAR studies, anti-angiogenic activity
[2] = Earlier SAR studies, hepatotoxicity
CYP3A4 = target: T1, CYP3A4 (Homo sapiens, UniProt P08684); test: CYP3A4 enzyme assay (Vivid CYP3A4 Green Screening Kit); assay type: in vitro ADME
T1 construct: purchased ThermoFisher P2857; host or cells: baculosomes (insect-cell microsomes, own knowledge)
T1 sequence (P08684 whole entry): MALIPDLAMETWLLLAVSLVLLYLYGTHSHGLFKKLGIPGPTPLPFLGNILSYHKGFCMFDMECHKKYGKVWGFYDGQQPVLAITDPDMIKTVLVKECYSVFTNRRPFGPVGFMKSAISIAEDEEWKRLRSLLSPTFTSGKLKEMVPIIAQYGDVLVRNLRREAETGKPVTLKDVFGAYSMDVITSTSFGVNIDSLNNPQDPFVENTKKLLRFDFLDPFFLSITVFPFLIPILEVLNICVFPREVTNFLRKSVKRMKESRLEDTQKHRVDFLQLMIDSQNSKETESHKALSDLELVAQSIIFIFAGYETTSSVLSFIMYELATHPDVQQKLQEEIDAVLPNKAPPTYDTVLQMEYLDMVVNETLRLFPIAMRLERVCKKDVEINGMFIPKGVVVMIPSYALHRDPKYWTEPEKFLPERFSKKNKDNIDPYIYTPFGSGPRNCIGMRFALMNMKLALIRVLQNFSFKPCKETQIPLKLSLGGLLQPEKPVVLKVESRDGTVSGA
How it was run: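 Cell-free fluorescence assay with CYP3A4 baculosomes preincubated with drug 10 min at 37° C before Vivid substrate addition. Fluorescence (ex/em 485/520) read every 1 min for 60 minutes. Compounds tested at 1 μM final concentration.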

[3] = Aqueous solubility test in 0.001N HCl; assay type: physicochemical; settings: for solubility at 24 h: 0.001 N HCl aqueous buffer, simulated gastric fluid, kinetic from dmso stock, thermodynamic solubility, HPLC, pH=3, room temperature
Description: The inhibitory effects of the new analogs on HUVEC proliferation were measured using a [3H]-thymidine incorporation assay. The log P values, used as an indicator of lipophilicity, were calculated using ALOGPS2.1 software. Aqueous solubility is a key physiochemical property relevant for oral absorption. We determined the solubility of each analog in 0.001 N HCl (pH=3), which represents the acidic human gastric fluid.
Aqueous solubility test. In a 1.5 mL microcentrifuge tube, 2 ul of 10 mM compound stock solution in DMSO was added to 1 mL 0.001N HCl aqueous buffer to obtain saturated solution. The resulting mixture was shaken under 600 rpm for 24 h at room temperature. Then the tube was centrifuged at 13,000 rpm for 5 min to remove the undissolved compound. 100 ul of the supernatant was injected to an Agilent 6120 LC/MS for analysis. The mass spectrometry data was collected under SIM/Scan mode. The ions of compound Exact Mass+1 and Exact Mass+23 were monitored as selected ion monitoring (SIM) for peak area integration. Solubility was calculated according to the concentration standard curve of each compound.

HUVEC [4] = test: HUVEC proliferation, [3H]-thymidine incorporation assay; assay type: cell-based; settings: Homo sapiens, mean ± SD, three independent experiments, read-out: HUVEC inhibition IC50
HUVECs = test: Filipin staining of intracellular cholesterol (NPC phenotype); assay type: cell-based, human; settings: HUVEC, 0.2 μM, 24 h
Excerpt: Nieman-Pick C phenotype and mTOR inhibition. […] We thus determined whether compound 48 shared the same mechanism with itraconazole. The intracellular cholesterol was detected using the cholesterol-binding fluorescent dye filipin. […] It is known that AMPK activation leads to mTOR inhibition.
Inhibition of NPC1. NPC1 plays an essential role in cholesterol export from the endolysosome. […] At a close view (FIG. 9B), the linear pyridinyl-piperizin-1-yl-phenyl core of compound 14 nestled into the hydrophobic channel created by the transmembrane helix. The isobutyl tail faced toward the open entrance of this channel. The tetrazole moiety pointed into the closed end of the pocket and interacted with the hydroxyl group of Tyr1225 via hydrogen bonding.
Filipin staining. 2000 HUVECs were plated in chamber slide with 1 ml media and allowed to settle overnight. […] The the cells were fixed with 4% paraformaldehyde for 15 min. After washed, cells were incubated with 500 ul 50 ug/ml filipin solution for 1 hour in the dark. Then the cells were washed twice with PBS, mounted and covered with coverslip. The images were taken using confocal microscope under 360/460 nm.

VEGFR2 [5] = test: Immunofluorescence assay, VEGFR2 cellular localization; assay type: cell-based, human; settings: HUVEC, 2 μM, 24 h, colocalized with GM130
Description: Immunofluorescence assay. HUVECs (5000) were seeded in 4-well chamber slide (Nunc™ Lab-Tek™ II) with 1 mL media and cultured overnight. Cells were treated with […] drugs or DMSO for 24 h. The media was then aspirated and washed 3 times with PBS. Cells were fixed with 4% paraformaldehyde for 15 min, washed three times with PBS, permeabilized with 0.1% Triton X and washed again. 2% BSA blocking buffer was applied to the cells for 1 h. The primary antibodies of VEGFR2 (1:50, cell signaling, #2479) and GM130 (1:1000, BD, #610823) were incubated overnight at 4° C. After washing 3 times with 0.5% BSA in PBS, secondary antibody solutions (1:1000 goat anti-rabbit Alexa Fluor 488, Invitrogen, #A11008 and 1:1000 goat anti-mouse Alexa Fluor 594, Invitrogen, A11005) were applied at room temperature for 1 h in the dark. After washing 3 times, slides were incubated in 0.1 μg/mL DAPI solution for 5 min and rinsed 2 times with PBS. The coverslip was mounted with Immunount (Fisher) and sealed with nail polish. Confocal images were taken using Zeiss LSM700 confocal microscope with 20× lenses.

VEGFR2 [6] = test: Western blot, VEGFR2 glycosylation in HUVEC; assay type: cell-based, human; settings: 24 h
Description: mTOR and VEGFR2 inhibition. We then determined the effects of compound 14 on AMPK/mTOR activity and VEGFR2 glycosylation. […] We observed two VEGFR2 bands by Western blotting, representing differentially glycosylated forms of the receptor, with the higher molecular weight band being more predominant in untreated HUVEC. […] The high molecular weight species of VEGFR2 disappeared upon treatment with compound 14 at concentrations of 0.5 μM or higher (FIG. 10A). We next determined whether compound 14 and other analogs affected cellular localization of VEGFR2 using immunofluorescence (FIG. 10B). […] In contrast, in the untreated cells VEGFR2 was uniformly distributed in small puncta throughout the cytoplasm. As a critical component of lipid rafts, cholesterol is pivotal to intracellular transportation and cell signaling.
Western blot. […] Then cells were lysed using RIPA buffer and the protein concentration were measured and normalized. After electrophoresis and transfer onto 0.45 um nitrocellulose membranes, the membranes were bolted with 5% BSA for 1 h and then incubated overnight at 4° C. Secondary antibody was applied to each membrane for 1 hour. Bolts were imaged using Syngene PXi imaging system after adding chemiluminescent substrate. […]

HUVEC [7] = test: HUVEC tube formation assay on Matrigel; assay type: cell-based; settings: Homo sapiens, 24 h, read-out: inhibition of HUVEC tube formation (total tube length)
AMPK = test: Western blot, AMPK activation in HUVEC; assay type: cell-based, human; settings: 24 h, dose-dependent
Description: (§1) Western blot. […] Then cells were lysed using RIPA buffer and the protein concentration were measured and normalized. After electrophoresis and transfer onto 0.45 um nitrocellulose membranes, the membranes were bolted with 5% BSA for 1 h and then incubated overnight at 4° C. Secondary antibody was applied to each membrane for 1 hour. Bolts were imaged using Syngene PXi imaging system after adding chemiluminescent substrate. The following antibodies were used for the assay: AMPKα (1:1,000, cell signaling, #2532s), phosphor-AMPKα (1:1,000, cell signaling #2535s), ACC (1:1,000, cell signaling #3662s), phosphor-ACC (1:1,000, cell signaling, #3661s), mTOR (1:1,000, cell signaling, #2972S), phosphor-mTOR (1:1,000, cell signaling, #9234s), p70 S6 Kinase (1:1,000, senta cruz, #sc-8418), phosphor-p70 S6 Kinase (1:1,000, cell signaling, #3662s), anti-Rabbit IgG (1:10000, GE lifesciences, #NA934V).

HUVEC [8] = test: HUVEC proliferation, [3H]-thymidine incorporation assay; assay type: cell-based, human
How it was run: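 Proliferation read as [3H]-thymidine uptake (1 μCi, 6 h pulse) after 24 h drug treatment in triplicate. Cells: HUVEC at passage ≤8 grown in EGM-2, plated 2000/well the night before; IC50 fitted from scintillation counts.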

mTOR = test: Western blot, mTOR inhibition in HUVEC; assay type: cell-based, human; settings: for mTOR inhibition (phosphorylation of mTOR / p70 S6K): 24 h
Description: as §1

[9] = background statement; cited from earlier work
[10] = dose-response, FIG. 2 / FIG. 6, read-out: IC50 for CYP3A4 inhibition

SMILES	IC50 (CYP3A4; [10])	solubility at 24 h [3]	anti-angiogenic activity, in words [1]	IC50 (HUVEC [4])	induction of NPC phenotype (cholesterol accumulation) (HUVECs)	AMPK activation (phosphorylation of AMPK Thr172 / substrate ACC) (AMPK)	mTOR inhibition (phosphorylation of mTOR / p70 S6K) (mTOR)	also measured
CCC(C)n1ncn(-c2ccc(N3CCN(c4ccc(OC[C@@H]5CO[C@@](Cn6cncn6)(c6ccc(Cl)cc6Cl)O5)cc4)CC3)cc2)c1=O (some centres unmarked) [IT-C]	–	–	strongest anti-angiogenic activity	–	–	–	–	hepatotoxicity, in words [2]: significantly reduced hepatotoxicity
CCC(C)n1ncn(-c2ccc(N3CCN(c4ccc(OC[C@@H]5CO[C@@](Cn6cnnn6)(c6ccc(Cl)cc6Cl)O5)cc4)CC3)c(F)c2)c1=O (stereo partly drawn) [Compound 8, 4-(4-(4-(4-(((2S,4R)-2-((1H-tetrazol-1-yl)methyl)-2-(2,4-dichlorophenyl)-1,3-dioxolan-4-yl)methoxy)phenyl)piperazin-1-yl)-3-fluorophenyl)-2-(sec-butyl)-2,4-dihydro-3H-1,2,4-triazol-3-one]	> 100 µM	0.0528 µg/mL (≈ 0.0729 µM)	–	0.153 ± 0.0327 µM	massive build-up of cholesterol	–	–	–
CCC(C)n1ncn(-c2ccc(N3CCN(c4ccc(OC[C@@H]5CO[C@@](Cn6cnnn6)(c6ccc(Cl)cc6Cl)O5)cc4)CC3)cc2)c1=O (stereo partly drawn) [Compound 48, 4-(4-(4-(4-(((2S,4R)-2-((1H-tetrazol-1-yl)methyl)-2-(2,4-dichlorophenyl)-1,3-dioxolan-4-yl)methoxy)phenyl)piperazin-1-yl)phenyl)-1-sec-butyl-1H-1,2,4-triazol-5(4H)-one]	–	–	–	–	–	increased the phosphorylation of AMPK	decrease in the phosphorylation of mTOR	CYP3A4 Inhibition (compared to intracozanole at 1 um) (CYP3A4; % enzyme inhibition at 1 uM drug / % enzyme inhibition at 1 uM itraconazole): 0.02; IC50 at 60 min (CYP3A4; human, recombinant CYP3A4 baculosomes (cell-free), probe Vivid substrate (Vivid CYP3A4 Green Screening Kit), dose-response, FIG. 2 / FIG. 6, read-out: IC50 for CYP3A4 inhibition): > 20 µM; EC50 at 60 min (CYP3A4; human, recombinant CYP3A4 baculosomes, probe Vivid substrate (Vivid CYP3A4 Green Screening Kit), read-out: EC50 against CYP3A4): > 20 µM; induction of NPC phenotype (cholesterol accumulation) (HUVECs; listed as compound 48): induced NPC phenotype; Proliferation (IC50/IC50 Itra) (HUVEC [8]; HUVEC IC50 relative to itraconazole): 0.4

Continued, in another order:

IC50 (CYP3A4; [10])	solubility at 24 h [3]	SMILES	anti-angiogenic activity, in words [1]	IC50 (HUVEC [4])	induction of NPC phenotype (cholesterol accumulation) (HUVECs)	AMPK activation (phosphorylation of AMPK Thr172 / substrate ACC) (AMPK)	mTOR inhibition (phosphorylation of mTOR / p70 S6K) (mTOR)	also measured
95 µM	0.951 µg/mL (≈ 1.34 µM)	CCC(C)n1ncn(-c2ccc(N3CCN(c4ccc(OC[C@@H]5CO[C@@](Cn6cnnn6)(c6ccc(Cl)cc6Cl)O5)cn4)CC3)cc2)c1=O (stereo partly drawn) [Compound 14, 4-(4-(4-(5-(((2S,4R)-2-((1H-tetrazol-1-yl)methyl)-2-(2,4-dichlorophenyl)-1,3-dioxolan-4-yl)methoxy)pyridin-2-yl)piperazin-1-yl)phenyl)-2-(sec-butyl)-2,4-dihydro-3H-1,2,4-triazol-3-one]	–	0.077 µM	massive build-up of cholesterol	activated AMPK	potently inhibited	increase in solubility compared to itraconazole ([3]; 0.001N HCl): over 90 fold; VEGFR2 cellular localization (VEGFR2 [5]): accumulated in the perinuclear region; VEGFR2 glycosylation, band mobility (VEGFR2 [6]): mobility shift to the lower molecular weight, hypoglycosylated band; concentration at which the high molecular weight species of VEGFR2 disappeared (VEGFR2 [6]): ≥ 0.5 µM; inhibition at 3 µM (HUVEC [7]): 70%; IC50 (HUVEC [8]; [3H]-thymidine incorporation, mean ± SD, three independent experiments, read-out: HUVEC inhibition IC50): 0.0771 ± 0.0119 µM; S6K phosphorylation at higher doses (mTOR; 1 μM and 2 μM): completely abolished
–	0.321 µg/mL (≈ 0.455 µM)	CCC(C)n1ncn(-c2ccc(N3CCN(c4ccc(OC[C@@H]5CO[C@@](Cn6cnnn6)(c6ccc(Cl)cc6Cl)O5)cc4)CC3)cc2)c1=O (some centres unmarked) [Compound 24]	increased activity	–	–	–	–	CYP3A4 inhibition, in words (CYP3A4; dose response or compared with itraconazole): significantly reduced CYP3A4 inhibition; induction of NPC phenotype (cholesterol accumulation) (HUVECs; listed as compound 24): massive build-up of cholesterol
–	0.0101 µg/mL (≈ 0.0143 µM)	CCC(C)n1ncn(-c2ccc(N3CCN(c4ccc(OCC5COC(Cn6cncn6)(c6ccc(Cl)cc6Cl)O5)cc4)CC3)cc2)c1=O (centres unmarked) [itraconazole, reference compound]	–	–	–	–	–	log P [9]: 5.3

— US12071430B2 (The Johns Hopkins University, priority 2011, dated 2024)
